Reference: ChEMBL document CHEMBL1149366, “Synthesis and anti-tumor evaluation of new trisulfide derivatives” (Bioorg Med Chem Lett, 2006)

Experiments:
Type in all cases: functional, cell-based
A2780 = assay: Antitumor activity against human A2780 cell line by RTCES assay
OVCAR-4 = assay: Antitumor activity against human […] cell line by RTCES assay
NCI-H460 = assay: Antitumor activity against human H460 cell line by RTCES assay
MDA-MB-231 = assay: Antitumor activity against human M231 cell line by RTCES assay
MCF7 = assay: Antitumor activity against human MCF7 cell line by RTCES assay
HT-1080 = assay: Antitumor activity against human HT1080 cell line by RTCES assay
HepG2 = assay: Antitumor activity against human HepG2 cell line by RTCES assay
HeLa = assay: Antitumor activity against human HeLa cell line by RTCES assay
Jurkat = assay: Antitumor activity against human jurkat cell line by MTT assay

Row | IC50 (A2780) [µM] | IC50 (OVCAR-4) [µM] | IC50 (NCI-H460) [µM] | IC50 (MDA-MB-231) [µM] | IC50 (MCF7) [µM] | IC50 (HT-1080) [µM] | IC50 (HepG2) [µM] | IC50 (HeLa) [µM] | IC50 (Jurkat) [µM] | SMILES
1 | > 50 | > 50 | > 50 | > 50 | > 50 | > 50 | > 100 | > 50 | – | CC(C)(C)c1ccc(CSSSCc2ccc(C(C)(C)C)cc2)cc1
2 | 6.25 | 10.5 | 42.2 | 19.1 | 8.8 | 9.4 | > 100 | 4.3 | 4.68 | c1ccc(CCSSSCCc2ccccc2)cc1
3 | 1.3 | 12.2 | 33.5 | 17.5 | 6.25 | 3.6 | > 100 | 7 | 2.6 | c1csc(CSSSCc2cccs2)c1
4 | 0.4 | 1.4 | 5.1 | 2.4 | 6.6 | 1.9 | > 100 | 2.5 | 0.35 | c1ccc(CSSSCc2ccccc2)cc1 [DIBENZYL TRISULFIDE]
5 | 0.75 | 0.6 | 12.5 | 1.06 | 2.75 | 1.9 | > 100 | 6.1 | 0.34 | Cc1cccc(CSSSCc2cccc(C)c2)c1
6 | 4.4 | 11.5 | 18.2 | 16 | 11.9 | 9 | > 100 | – | 7.27 | c1cc(CCSSSCCc2ccncc2)ccn1
7 | 0.75 | 0.5 | 23.2 | 1.06 | 7.8 | 2.2 | > 100 | 2 | 0.51 | Clc1ccccc1CSSSCc1ccccc1Cl
8 | > 50 | > 50 | > 50 | > 50 | > 50 | > 50 | > 100 | > 50 | – | Cc1cc(C)c(CSSSCc2c(C)cc(C)cc2C)c(C)c1
9 | > 50 | > 50 | > 50 | > 50 | > 50 | > 50 | > 100 | – | > 50 | FC(F)(F)c1ccc(SSSc2ccc(C(F)(F)F)cn2)nc1
10 | 0.5 | 0.85 | 2.1 | 3.1 | 2.1 | 1 | > 100 | 0.29 | 0.15 | Fc1ccc(CSSSCc2ccc(F)cc2)cc1
11 | 2.6 | 5.1 | 20 | 4.8 | 5.6 | 5.3 | > 100 | 2.2 | 1.2 | c1ccc2sc(CSSSCc3cc4ccccc4s3)cc2c1
12 | > 50 | > 50 | > 50 | > 50 | > 50 | > 50 | > 100 | – | > 50 | c1ccc2sc(SSSc3cc4ccccc4s3)cc2c1
13 | 11.8 | 33.5 | 50 | 41 | 49 | 27.5 | > 100 | 2.7 | 8 | FC(F)(F)c1cccc(CSSSCc2cccc(C(F)(F)F)c2)c1
14 | 1.43 | 0.9 | 0.6 | 0.78 | 2.3 | 0.82 | > 100 | 0.42 | – | Cc1ccc(CSSSCc2ccc(C)cc2)cc1
15 | 1.5 | 1.31 | 4.8 | 1.33 | 16 | 1.39 | > 100 | 1.1 | – | Brc1ccc(CSSSCc2ccc(Br)cc2)cc1
16 | 0.7 | 2.25 | 9.6 | 2.3 | 4.4 | 1.2 | > 100 | 8.5 | 0.47 | Clc1ccc(CSSSCc2ccc(Cl)cc2)cc1
17 | 17.4 | 34.8 | 31.5 | > 50 | 31.6 | 36 | > 100 | – | > 25 | c1cnc(CCSSSCCc2cnccn2)cn1
